Test results as given in ChEMBL document CHEMBL3045728, “Synthesis, physico-chemical properties, and antimicrobial evaluation of a new series of iron(III) hexadentate chelators” (Med Chem Res, 2013).
In brackets after ≈: the same amount, converted by molar mass.

How the values were obtained:
[1] = Iron chelating activity of the compound assessed as stability constant of Fe3+-compound complex; format: physicochemical
Staphylococcus aureus = test: Antimicrobial activity against Staphylococcus aureus assessed as growth inhibition incubated for 2 hr measured after 24 hr by turbidity based assay; format: functional
Bacillus cereus = test: Antimicrobial activity against Bacillus cereus assessed as growth inhibition incubated for 2 hr measured after 24 hr by turbidity based assay; format: functional
[2] = Iron chelating activity of the compound assessed as stability constant of Fe3+-compound complex after 5 min by spectrophotometric titration analysis; format: physicochemical
Bacillus subtilis = test: Antimicrobial activity against Bacillus subtilis assessed as growth inhibition incubated for 2 hr measured after 24 hr by turbidity based assay; format: functional
Escherichia coli = test: Antimicrobial activity against Escherichia coli assessed as growth inhibition incubated for 2 hr measured after 24 hr by turbidity based assay; format: functional
Pseudomonas aeruginosa = test: Antimicrobial activity against Pseudomonas aeruginosa assessed as growth inhibition incubated for 2 hr measured after 24 hr by turbidity based assay; format: functional

Structure (SMILES) | log K [1] | MIC (Staphylococcus aureus) [µg/mL] | MIC (Bacillus cereus) [µg/mL] | log K [2] | MIC (Bacillus subtilis) [µg/mL] | MIC (Escherichia coli) [µg/mL] | MIC (Pseudomonas aeruginosa) [µg/mL]
O=C(O)C(NCCNC(C(=O)O)c1ccccc1O)c1ccccc1O (centres undefined) | 34 | – | – | – | – | – | –
O=C(NCCN(CCNC(=O)c1[nH]ccc(=O)c1O)CCNC(=O)c1[nH]ccc(=O)c1O)c1[nH]ccc(=O)c1O | – | 40 (≈ 71.7 µM) | 40 (≈ 71.7 µM) | 30.7 | 40 (≈ 71.7 µM) | 80 (≈ 143 µM) | 24 (≈ 43 µM)
O=C(NCCN(CCNC(=O)c1c(O)c(=O)ccn1CCOCCO)CCNC(=O)c1c(O)c(=O)ccn1CCOCCO)c1c(O)c(=O)ccn1CCOCCO | – | 40 (≈ 48.7 µM) | 40 (≈ 48.7 µM) | 32 | 40 (≈ 48.7 µM) | 40 (≈ 48.7 µM) | 40 (≈ 48.7 µM)
COCCn1ccc(=O)c(O)c1C(=O)NCCN(CCNC(=O)c1c(O)c(=O)ccn1CCOC)CCNC(=O)c1c(O)c(=O)ccn1CCOC | – | 80 (≈ 109 µM) | 80 (≈ 109 µM) | 32.3 | 40 (≈ 54.7 µM) | 16 (≈ 21.9 µM) | 16 (≈ 21.9 µM)
O=C(NCCN(CCNC(=O)c1c(O)c(=O)ccn1CCO)CCNC(=O)c1c(O)c(=O)ccn1CCO)c1c(O)c(=O)ccn1CCO | – | 80 (≈ 116 µM) | 40 (≈ 58 µM) | – | 40 (≈ 58 µM) | 40 (≈ 58 µM) | 40 (≈ 58 µM)
CCCCCCn1ccc(=O)c(O)c1C(=O)NCCN(CCNC(=O)c1c(O)c(=O)ccn1CCCCCC)CCNC(=O)c1c(O)c(=O)ccn1CCCCCC | – | 40 (≈ 49.4 µM) | 40 (≈ 49.4 µM) | – | 40 (≈ 49.4 µM) | 80 (≈ 98.8 µM) | 40 (≈ 49.4 µM)
CCCCn1ccc(=O)c(O)c1C(=O)NCCN(CCNC(=O)c1c(O)c(=O)ccn1CCCC)CCNC(=O)c1c(O)c(=O)ccn1CCCC | – | 80 (≈ 110 µM) | 80 (≈ 110 µM) | – | 80 (≈ 110 µM) | 40 (≈ 55.1 µM) | 40 (≈ 55.1 µM)
CCn1ccc(=O)c(O)c1C(=O)NCCN(CCNC(=O)c1c(O)c(=O)ccn1CC)CCNC(=O)c1c(O)c(=O)ccn1CC | – | 40 (≈ 62.3 µM) | 40 (≈ 62.3 µM) | 32.6 | 40 (≈ 62.3 µM) | 24 (≈ 37.4 µM) | 16 (≈ 24.9 µM)
Cn1ccc(=O)c(O)c1C(=O)NCCN(CCNC(=O)c1c(O)c(=O)ccn1C)CCNC(=O)c1c(O)c(=O)ccn1C | – | 40 (≈ 66.7 µM) | 40 (≈ 66.7 µM) | 32.1 | 40 (≈ 66.7 µM) | 24 (≈ 40 µM) | 24 (≈ 40 µM)
O=C(O)CN(CCN(CC(=O)O)Cc1ccccc1O)Cc1ccccc1O | 40 | – | – | – | – | – | –
CC(=O)N(O)CCCCCNC(=O)CCC(=O)N(O)CCCCCNC(=O)CCC(=O)N(O)CCCCCN [DEFEROXAMINE] | 30.4 | – | – | – | – | – | –
O=C(O)CN(CCN(CC(=O)O)CC(=O)O)CCN(CC(=O)O)CC(=O)O [PENTETIC ACID] | 28.6 | 40 (≈ 102 µM) | 80 (≈ 203 µM) | – | 80 (≈ 203 µM) | 80 (≈ 203 µM) | 80 (≈ 203 µM)
